From patent US10597388B2, “Pyridazinone herbicides” (FMC CORPORATION, priority 2014, dated 2020)

How the values were obtained:
Assay in all cases: Test E greenhouse herbicide test, pre- and postemergence
Assay type in all cases: in vivo
[1] = tested on: arrowleaf sida (Sida rhombifolia)
How it was run: (§1)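 Greenhouse pots; preemergence on silt loam, postemergence on plants 1- to 4-leaf (2 to 18 cm) grown in peat, vermiculite and nutrient medium. Test chemicals formulated in non-phytotoxic solvent with surfactant. Ratings taken after 14 to 21 d.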

[2] = tested on: barnyardgrass (Echinochloa crus-galli)
How it was run: as §1

[3] = tested on: corn (Zea mays)
How it was run: as §1

[4] = tested on: crabgrass, large (large crabgrass, Digitaria sanguinalis); settings: Preemergence
How it was run: as §1

[5] = tested on: dayflower (Virginia (VA) dayflower, Commelina virginica)
How it was run: as §1

[6] = tested on: foxtail, giant (giant foxtail, Setaria faberii); settings: Preemergence
How it was run: as §1

[7] = tested on: goosegrass (Eleusine indica); settings: Preemergence
How it was run: as §1

[8] = tested on: horseweed (Conyza canadensis); settings: Preemergence
How it was run: as §1

[9] = tested on: lambsquarters (Chenopodium album); settings: Preemergence
How it was run: as §1

[10] = tested on: momingglory (Ipomoea coccinea); settings: Preemergence
How it was run: as §1

[11] = tested on: nightshade (eastern black nightshade, Solanum ptycanthum); settings: Preemergence
How it was run: as §1

[12] = tested on: panicum, fall (fall panicum, Panicum dichotomiflorum)
How it was run: as §1

[13] = tested on: pigweed, palmer (palmer pigweed, Amaranthus palmeri)
How it was run: as §1

[14] = tested on: ragweed (common ragweed, Ambrosia elatior)
How it was run: as §1

[15] = tested on: sandbur (southem sandbur, Cenchrus echinatus)
How it was run: as §1

[16] = tested on: surinam grass (Brachiaria decumbens); settings: Preemergence
How it was run: as §1

[17] = tested on: velvetleaf (Abutilon theophrasti); settings: Preemergence
How it was run: as §1

[18] = 62 g ai/ha, Postemergence, scale 0 to 100 (0 no effect, 100 complete control)
[19] = 62 g ai/ha, Preemergence, scale 0 to 100 (0 no effect, 100 complete control)
[20] = 125 g ai/ha, Postemergence, scale 0 to 100 (0 no effect, 100 complete control)
[21] = 250 g ai/ha, Postemergence, scale 0 to 100 (0 no effect, 100 complete control)
[22] = Postemergence, 31 g ai/ha, visual, scale 0 no effect to 100 complete control
[23] = Preemergence, 31 g ai/ha, scale 0 to 100, 0 no effect, 100 complete control
[24] = Preemergence, 125 g ai/ha, visual, scale 0 no effect to 100 complete control
[25] = Preemergence, 250 g ai/ha, visual, scale 0 no effect to 100 complete control
[26] = 62 g ai/ha, scale 0 to 100 (0 no effect, 100 complete control)
[27] = 125 g ai/ha, visual, scale 0 no effect to 100 complete control
[28] = 250 g ai/ha, visual, scale 0 no effect to 100 complete control
[29] = 31 g ai/ha, scale 0 to 100, 0 no effect, 100 complete control
[30] = 125 g ai/ha, scale 0 to 100 (0 no effect, 100 complete control)
[31] = 125 g ai/ha, Preemergence, scale 0 to 100 (0 no effect, 100 complete control)

CC(=O)Oc1c(C)nn(C)c(=O)c1-c1c(C)sc2ccc(C)cc12 [Compound 25]
80: Plant response rating, Arrowleaf Sida [1, 19] | Plant response rating, Arrowleaf Sida [1, 20] | Plant response rating, Crabgrass, Large [4, 27] | Plant response rating, Foxtail, Giant [6, 29] | Plant response rating, Goosegrass [7, 27] | Plant response rating, Nightshade [11, 26] | Plant response rating, Panicum, Fall [12, 20] | Plant response rating, Pigweed, Palmer [13, 18] | Plant response rating, Sandbur [15, 31] | Plant response rating, Surinam Grass [16, 26]
100: Plant response rating, Foxtail, Giant [6, 28] | Plant response rating, Horseweed [8, 26] | Plant response rating, Horseweed [8, 29] | Plant response rating, Horseweed [8, 27] | Plant response rating, Horseweed [8, 28] | Plant response rating, Lambsquarters [9, 26] | Plant response rating, Lambsquarters [9, 27] | Plant response rating, Lambsquarters [9, 28] | Plant response rating, Morningglory [10, 28] | Plant response rating, Panicum, Fall [12, 19] | Plant response rating, Panicum, Fall [12, 31] | Plant response rating, Panicum, Fall [12, 25] | Plant response rating, Pigweed, Palmer [13, 20] | Plant response rating, Pigweed, Palmer [13, 31] | Plant response rating, Pigweed, Palmer [13, 25] | Plant response rating, Ragweed [14, 25] | Plant response rating, Velvetleaf [17, 26] | Plant response rating, Velvetleaf [17, 28]
5: Plant response rating, Dayflower, VA [5, 19]
20: Plant response rating, Barnyardgrass [2, 23] | Plant response rating, Corn [3, 18] | Plant response rating, Corn [3, 20] | Plant response rating, Goosegrass [7, 29]
30: Plant response rating, Dayflower, VA [5, 25]
60: Plant response rating, Arrowleaf Sida [1, 22] | Plant response rating, Barnyardgrass [2, 19] | Plant response rating, Barnyardgrass [2, 24] | Plant response rating, Sandbur [15, 18] | Plant response rating, Velvetleaf [17, 29]
85: Plant response rating, Arrowleaf Sida [1, 21] | Plant response rating, Crabgrass, Large [4, 28] | Plant response rating, Pigweed, Palmer [13, 21] | Plant response rating, Sandbur [15, 25]
15: Plant response rating, Corn [3, 21] | Plant response rating, Crabgrass, Large [4, 26] | Plant response rating, Dayflower, VA [5, 24]
0: Plant response rating, Corn [3, 19] | Plant response rating, Corn [3, 23] | Plant response rating, Corn [3, 24] | Plant response rating, Corn [3, 25] | Plant response rating, Dayflower, VA [5, 23]
90: Plant response rating, Arrowleaf Sida [1, 24] | Plant response rating, Barnyardgrass [2, 25] | Plant response rating, Goosegrass [7, 28] | Plant response rating, Nightshade [11, 29] | Plant response rating, Panicum, Fall [12, 21] | Plant response rating, Pigweed, Palmer [13, 19] | Plant response rating, Ragweed [14, 18] | Plant response rating, Ragweed [14, 20] | Plant response rating, Ragweed [14, 22] | Plant response rating, Surinam Grass [16, 30]
10: Plant response rating, Corn [3, 22] | Plant response rating, Dayflower, VA [5, 22]
40: Plant response rating, Arrowleaf Sida [1, 23] | Plant response rating, Barnyardgrass [2, 22] | Plant response rating, Dayflower, VA [5, 18]
98: Plant response rating, Foxtail, Giant [6, 27] | Plant response rating, Lambsquarters [9, 29] | Plant response rating, Nightshade [11, 28] | Plant response rating, Ragweed [14, 31] | Plant response rating, Velvetleaf [17, 30]
75: Plant response rating, Arrowleaf Sida [1, 18] | Plant response rating, Pigweed, Palmer [13, 22] | Plant response rating, Ragweed [14, 23] | Plant response rating, Sandbur [15, 21]
70: Plant response rating, Morningglory [10, 26] | Plant response rating, Sandbur [15, 20]
65: Plant response rating, Dayflower, VA [5, 21] | Plant response rating, Goosegrass [7, 26] | Plant response rating, Morningglory [10, 29] | Plant response rating, Pigweed, Palmer [13, 23] | Plant response rating, Sandbur [15, 19] | Plant response rating, Surinam Grass [16, 29]
35: Plant response rating, Sandbur [15, 23]
50: Plant response rating, Barnyardgrass [2, 18] | Plant response rating, Barnyardgrass [2, 20] | Plant response rating, Barnyardgrass [2, 21] | Plant response rating, Dayflower, VA [5, 20] | Plant response rating, Panicum, Fall [12, 18] | Plant response rating, Panicum, Fall [12, 22] | Plant response rating, Sandbur [15, 22]
95: Plant response rating, Arrowleaf Sida [1, 25] | Plant response rating, Foxtail, Giant [6, 26] | Plant response rating, Morningglory [10, 30] | Plant response rating, Nightshade [11, 30] | Plant response rating, Panicum, Fall [12, 23] | Plant response rating, Ragweed [14, 19] | Plant response rating, Ragweed [14, 21] | Plant response rating, Surinam Grass [16, 28]
